{"source": "patent US8497299B2", "about": "“Compositions including quinonoid derivatives of cannabinoids for therapeutic use” (Yissum Research Development Company of The Hebrew …, priority 2004, dated 2013)", "key": {"[1]": {"tested_on": "Raji (Burkitt's lymphoma)", "assay": "MTT cell proliferation test, Raji cells", "format": "cell-based, human", "protocol": "(§1) Aliquots (200 μL) of suspensions of cancer cells were dispensed into wells of 96-well tissue culture plates at densities of 0.02×10^6 cells/well. Various concentrations of cannabinoic quinones were introduced into the wells, and their efficacy was tested three days after initiation of the cultures, using the 3-(4,5-dimethylthiazol-2-yl)-2,5-diphenyltetrazolium bromide (MTT) assay. The principle of this assay is that cells which survive following exposure to various compounds can reduce MTT to a dark-colored formazan, while dead cells are incapable of doing so. […] In each MTT assay every concentration of the cytotoxic substance was tested in five replicates in microplate wells. Assays with every cell line were carried out in two to three repeated experiments. The inhibitory effect of various compounds was calculated as percentage inhibition in comparison with the values obtained in untreated wells to which vehicle (ethanol 0.5%) was added."}, "[2]": {"tested_on": "Jurkat (human T-cell lymphoma)", "assay": "MTT cell proliferation test, Jurkat cells", "format": "cell-based", "protocol": "as §1"}, "SNB-19 (glioblastoma)": {"tested_on": "SNB-19 (glioblastoma)", "assay": "MTT cell proliferation test, SNB-19 cells", "format": "cell-based, human", "conditions": "for susceptibility of the cell line to inhibition, in words: SNB-19, relative to the other cell lines", "protocol": "as §1"}, "DU-145 (prostate cancer)": {"tested_on": "DU-145 (prostate cancer)", "assay": "MTT cell proliferation test, DU-145 cells", "format": "cell-based, human", "conditions": "for susceptibility of the cell line to inhibition, in words: DU-145, relative to the other cell lines", "protocol": "as §1"}, "[3]": {"tested_on": "human cancer cell lines (Raji, Jurkat, SNB-19, MCF-7, DU-145, NCI-H-226, HT-29)", "assay": "MTT cell proliferation test, all cell lines tested", "format": "cell-based", "conditions": "for concentration at which all cell lines tested were inhibited: all cell lines / cell types tested; for growth inhibition of human cancer cell lines in vitro, in words: MTT", "protocol": "as §1"}, "MCF-7 (breast cancer)": {"tested_on": "MCF-7 (breast cancer)", "assay": "MTT cell proliferation test, MCF-7 cells", "format": "cell-based, human", "protocol": "(§2) Raji and Jurkat cells were suspended in RPMI 1640 medium, supplemented with 20% heat-inactivated fetal calf serum (H-I FCS), 2 mM L-glutamine, 100 U/mL penicillin, and 0.01 mg/mL streptomycin at 37° C. in a 5% CO2 humidified atmosphere. Other cell lines were suspended in RPMI 1640 medium, supplemented with 10% H-I FCS, 2 mM L-glutamine, 100 U/mL penicillin, and 0.01 mg/mL streptomycin at 37° C. in a 5% CO2 humidified atmosphere.\n(§3) Aliquots (200 μL) of suspensions of cancer cells were dispensed into wells of 96-well tissue culture plates at densities of 0.02×10^6 cells/well. Various concentrations of cannabinoic quinones were introduced into the wells, and their efficacy was tested three days after initiation of the cultures, using the 3-(4,5-dimethylthiazol-2-yl)-2,5-diphenyltetrazolium bromide (MTT) assay. The principle of this assay is that cells which survive following exposure to various compounds can reduce MTT to a dark-colored formazan, while dead cells are incapable of doing so. The assay was performed as described previously [Carmichael, J., et al. (1987) Cancer Res. 47, 936-42; Rubinstein, L. V. et al. (1990) J Natl Cancer Inst. 82, 1113-8; Rubnov, S. et al. (2001) J Nat Prod. 64, 993-6]. In each MTT assay every concentration of the cytotoxic substance was tested in five replicates in microplate wells. Assays with every cell line were carried out in two to three repeated experiments. The inhibitory effect of various compounds was calculated as percentage inhibition in comparison with the values obtained in untreated wells to which vehicle (ethanol 0.5%) was added.\n(§4) The ability of cannabinoic quinones to inhibit cancer growth in vitro was verified on the following human cancer cell lines: Raji (Burkitt's lymphoma), Jurkat (human T-cell lymphoma), SNB-19 (glioblastoma), MCF-7 (breast cancer), DU-145 (prostate cancer), NCI-H-226 (lung cancer), and HT-29 (colon cancer) (see FIG. 5A-5E)."}, "HT-29 (colon cancer)": {"tested_on": "HT-29 (colon cancer)", "assay": "MTT cell proliferation test, HT-29 cells", "format": "cell-based, human", "protocol": "as §2, §3, §4"}, "HT-29 colon cancer": {"tested_on": "HT-29 colon cancer", "assay": "Growth of HT-29 colon cancer grafted s.c. in nude mice", "format": "in vivo", "protocol": "Tumors were grafted into nude mice by s.c. flank inoculation of 0.2×10^6 HT-29 cells in RPMI 1640 medium without FCS. The animals were assigned randomly to various groups and injected via intraperitoneal (i.p.), intratumor or subcutaneous (s.c.) on day 2 or 14 after cells injection with vehicle (1:1:18 v/v ethanol:Emulphor®:PBS) or 5 mg/kg of HU-331. Tumors were measured with external caliper, and their area was calculated by multiplying the length by the width of the tumor.\n(§5) A series of experiments were carried out to determine the capacity of HU-331 to inhibit the growth of human tumor cells in vivo. Nude mice received a subcutaneous (s.c.) injection of HT-29 human colon cancer cells. At various time intervals after the administration of the tumor cells the mice received i.p. or s.c. injections of HU-331 (2) at a dose of 5 mg/kg 3 times per week. This concentration paralleled the concentration of 5 μg/ml used in the in vitro experiments, which killed about 50% of HT-29 cancer cells.\nFurther, ten nude mice received a s.c. injection of HT-29 and were divided in two groups. Starting from day 2 after tumor injection, one group of mice received the i.p. injections of HU-331.\nIn another in vivo experiment, two groups of nude mice received an injection of HT-29 cancer cells subcutaneously in their backs. HU-331 (2) was injected subcutaneously at a concentration of 5 μg/ml (FIG. 6). In one group (Group 1), HU-331 was administrated intra-tumorally starting 14 days after the injection of tumor cells. In another group (Group 2), HU-331 was injected subcutaneously in the region where cancer cells had been injected, starting 2 days after the injection of tumor cells. […] In the mice that received HU-331 intra-tumorally starting 14 days after tumor implantation (Group 1), the anti-tumor effect of HU-331 took a longer time to be manifested."}, "[4]": {"assay": "Tolerability in treated nude mice (weight loss, adverse effects)", "format": "in vivo", "conditions": "5 mg/kg", "protocol": "as §5"}}, "note": "Where “and” joins values, the source holds several entries; their conditions need not be identical. Equal entries are not always repeated.", "data": [{"smiles": "CCCCCC1=CC(=O)C2=C(OC(C)(C)c3ccc(C)cc32)C1=O", "note": "[HU-345, 1-H-dibenzo[b,d]pyran-1,4(6H)-dione-6,6,9-trimethyl-3-pentyl]", "values": [{"measurement": "inhibition at 6.25 µg/mL", "setting": "[1]; Homo sapiens, Raji, read-out: inhibition of Raji cell growth", "value": "> 50", "unit": "%"}, {"measurement": "inhibition of Raji cell growth, comparison in words", "setting": "[1]; MTT", "value": "more effectively than that of the other cell lines tested"}, {"measurement": "concentration at which growth was inhibited", "setting": "[2]; Jurkat cells", "value": "12.5 µg/mL and 12.5 to 25.0 µg/mL"}, {"measurement": "susceptibility of the cell line to inhibition, in words", "setting": "SNB-19 (glioblastoma)", "value": "most susceptible"}, {"measurement": "susceptibility of the cell line to inhibition, in words", "setting": "DU-145 (prostate cancer)", "value": "most susceptible"}, {"measurement": "concentration at which growth was inhibited", "setting": "DU-145 (prostate cancer); DU-145 prostate cancer cells", "value": 12.5, "unit": "µg/mL"}, {"measurement": "concentration at which all cell lines tested were inhibited", "setting": "[3]", "value": "25.0 µg/mL and 12.5 to 25.0 µg/mL"}]}, {"smiles": "C=C(C)[C@@H]1CCC(C)=C[C@H]1C1=C(O)C(=O)C(CCCCC)=CC1=O", "note": "[HU-331, 3S,4R-p-benzoquinone-3-hydroxy-2-p-mentha-(1,8)-dien-3-yl-5-pentyl]", "values": [{"measurement": "concentration giving 50% inhibition of growth", "setting": "[1]; Raji lymphoma, MTT, three days", "value": 0.2, "unit": "µg/mL"}, {"measurement": "inhibition of Raji cell growth", "setting": "[1]; at 0.2 μg/ml", "value": "about 50%"}, {"measurement": "inhibition of Raji cell growth", "setting": "[1]; at 1.56 μg/ml", "value": "over 80%"}, {"measurement": "concentration giving 50% inhibition of growth", "setting": "[2]; Jurkat lymphoma, MTT, three days", "value": 0.2, "unit": "µg/mL"}, {"measurement": "inhibition of Jurkat cell growth", "setting": "[2]; at 0.2 μg/ml", "value": "about 50%"}, {"measurement": "inhibition of Jurkat cell growth", "setting": "[2]; at 1.56 μg/ml", "value": "over 80%"}, {"measurement": "susceptibility of the cell line to inhibition, in words", "setting": "MCF-7 (breast cancer); MCF-7, relative to the other cell lines", "value": "most susceptible"}, {"measurement": "concentration required for 50% inhibition of growth", "setting": "MCF-7 (breast cancer); MCF-7 mammary cancer, MTT, three days", "value": 3.125, "unit": "µg/mL"}, {"measurement": "inhibition of MCF-7 cell growth", "setting": "MCF-7 (breast cancer); at 3.125 μg/ml", "value": "about 50%"}, {"measurement": "susceptibility of the cell line to inhibition, in words", "setting": "HT-29 (colon cancer); HT-29, relative to the other cell lines", "value": "most susceptible"}, {"measurement": "concentration required for 50% inhibition of growth", "setting": "HT-29 (colon cancer); HT-29 colon cancer, MTT, three days", "value": 3.125, "unit": "µg/mL"}, {"measurement": "inhibition of HT-29 cell growth", "setting": "HT-29 (colon cancer); at 3.125 μg/ml", "value": "about 50%"}, {"measurement": "HT-29 cancer cells killed", "setting": "HT-29 (colon cancer); at 5 μg/ml in vitro", "value": "about 50%"}, {"measurement": "growth inhibition of human cancer cell lines in vitro, in words", "setting": "[3]", "value": "exerted an inhibitory effect on the in vitro growth of all seven human cancer cell lines tested"}, {"measurement": "tumor size versus controls", "setting": "HT-29 colon cancer; i.p. 5 mg/kg 3 times per week from day 2, at 35 days after cancer cell injection, p<0.0029", "value": "half the size of the tumors in controls"}, {"measurement": "tumor size versus vehicle-treated control mice", "setting": "HT-29 colon cancer; i.p. 5 mg/kg 3 times per week from day 2, starting at 25 days after cancer cells injection, p<0.05", "value": "significantly smaller"}, {"measurement": "tumor size versus controls", "setting": "HT-29 colon cancer; intra-tumoral from day 14 (Group 1), from day 31 onwards, not significant until day 45", "value": "smaller than in controls"}, {"measurement": "tumor size versus control mice", "setting": "HT-29 colon cancer; intra-tumoral from day 14 (Group 1), starting at day 45 after cell injection, p<0.05", "value": "significantly smaller"}, {"measurement": "tumor size versus control mice", "setting": "HT-29 colon cancer; s.c. in the region of the graft from day 2 (Group 2), at days 17-25 and until day 59, p<0.05", "value": "significantly smaller"}, {"measurement": "weight loss and observable adverse effects", "setting": "[4]", "value": "did not cause either weight loss or any observable adverse effects"}]}, {"smiles": "CCCCCC1=CC(=O)C([C@@H]2CC(C)CC[C@H]2C(C)C)=C(O)C1=O", "note": "(stereo partly drawn) [HU-396, 3S,4R-p-benzoquinone-3-hydroxy-2-[p-menthan-3-yl]-5-pentyl]", "values": [{"measurement": "inhibition of Jurkat cell proliferation, comparison in words", "setting": "[2]; MTT", "value": "less effectively than HU-395 and HU-331"}, {"measurement": "Jurkat cancer cells killed", "setting": "[2]; at 0.39 μg/ml", "value": "about 40%"}, {"measurement": "Jurkat cancer cells killed", "setting": "[2]; at 0.78 μg/ml", "value": "about 60%"}]}, {"smiles": "CCCCCC1=CC(=O)C([C@@H]2C=C(C)CC[C@H]2C(C)C)=C(O)C1=O", "note": "[HU-395, 3S,4R-p-benzoquinone-3-hydroxy-2-[p-mentha-1-en-3-yl]-5-pentyl]", "values": [{"measurement": "inhibition at 0.2 µg/mL", "setting": "[2]; Homo sapiens, Jurkat, at 0.2 μg/ml, read-out: inhibition of Jurkat cell growth", "value": "~60", "unit": "%"}, {"measurement": "inhibition of Jurkat cell proliferation, comparison in words", "setting": "[2]; MTT", "value": "at least to the same extent as HU-331"}]}, {"smiles": "CCCCCC1=CC(=O)C2=C(OC(C)(C)[C@@H]3CC=C(C)C[C@@H]23)C1=O", "note": "[HU-336, 6aR,10aR-1-H-dibenzo[b,d]pyran-1,4-(6H)-dione-6aβ,7,10,10aα-tetrahydro-6,6,9-trimethyl-3-pentyl]", "values": [{"measurement": "susceptibility of the cell line to inhibition, in words", "setting": "SNB-19 (glioblastoma)", "value": "most susceptible"}, {"measurement": "concentration at which growth was inhibited", "setting": "SNB-19 (glioblastoma); SNB-19 cells, inhibited only at this concentration", "value": 100, "unit": "µg/mL"}, {"measurement": "susceptibility of the cell line to inhibition, in words", "setting": "DU-145 (prostate cancer)", "value": "most susceptible"}, {"measurement": "growth inhibition of human cancer cell lines in vitro, in words", "setting": "[3]", "value": "weakest capacity to inhibit the growth of human cancer cell lines in vitro"}, {"measurement": "concentration at which all cell lines tested were inhibited", "setting": "[3]", "value": "over 12.5 μg/ml"}, {"measurement": "inhibition of growth of all the cells tested", "setting": "[3]; at 12.5 μg/ml or higher", "value": "≥ 50", "unit": "%"}]}]}
